≈ marks a conversion by molar mass, not a printed value. Like-named read-outs stand apart in the source and are kept apart here. Residues, ends and D or L forms follow the SMILES beside them.

Common to all, as to assay type: cell-based
Test [1] has as its system S. aureus. Briefly: Cytoplasmic membrane depolarization assay (diSC3-5). Particulars: EC5 64 μg/ml; after 45 min. How it is done: Membrane depolarization activity (Δψ) of the peptide was determined with intact E. coli and P. aeruginosa cells and the membrane potential-sensitive fluorescent dye, 3,3′-dipropylthiadicarbocyanine Iodide (diSC (3)5) (Invitrogen, Oregon), according to described methods (Sims, P. J., et al (1974) Biochemistry 13, 3315-3330). Briefly, bacterial cells of mid-logarithmic phase were harvested by centrifugation and washed twice with HEPES buffer (5 mM HEPES, 5 mM glucose, pH 7.6). The cells were suspended in the same buffer to an OD of 0.05. The cell suspension was incubated with […] diSC (3)5 until maximal uptake of the dye. 100 mM KCl was added to equilibrate the cytoplasmic and external potassium ion concentration of peptide, and fluorescence was monitored at an excitation wavelength of 622 nm and an emission wavelength of 670 nm. […]
Cytoplasmic depolarization assay(Δψ) was performed using the membrane potential sensitive dye 3,3′-dipropylthiadicarbocyanine iodide (diSC3-5) (Zang, L. et al., (2001) J. Biol. Chem. 276, 35714-35722). This dye can cross the outer membrane of the bacterial cell and become concentrated in the cytoplasmic membrane and thereby it self-quenches its own fluorescence. Upon addition of a membrane-permeabilizing agent the dye is released with consequent increase in the fluorescence. […]

Test [2] has as its system P. aeruginosa. How it is done: (§1) In vitro anti-bacterial activity of EC5. The test microorganisms mentioned earlier in the experimental procedures were used to evaluate the bactericidal activity of EC5 peptide. The minimum inhibitory concentrations (MICs) of the peptide were determined by standard dilution assay as recommended by Clinical and Laboratory Standard Institutes (CLSI) guidelines (Azad, M. A., et al., (2011) Antimicrob. Agents Chemother. 55, 2137-2145). Bacteria were grown to mid-logarithmic phase in cation-supplemented Mueller-Hinton broth (MHB) (Becton Dickinson, Sparks, Md.) on an orbital shaker (37° C.) and diluted to a 0.5 McFarland standard to a final volume of 1 ml. Decreasing concentrations of the peptide were incubated with the microorganisms. Results were recorded by visual inspection after 24 h of incubation at 37° C. Assay was repeated three separate times to ensure reproducibility. […] EC5 concentrations 0x, 0.5x, 1x, and 2×MIC were incubated with logarithmic phase of bacteria of approximately 10^5 CFU/ml in an orbital shaker for 48 h at 37° C. Samples were drawn and plated on NA plates. Polymyxin B was used as a positive control and peptide with no anti-bacterial activity from our previous studies was used as a negative control.

Test [3] has as its system E. coli. How it is done: as §1
Test [4] concerns K pneumoniae. As for the experimental part: as §1
Test [5] deals with other bacteria tested. Briefly: 2 h incubation of mid-logarithmic cultures with peptide, CFU on NA plates. Particulars: even at 50 μg/ml. As for the experimental part: All bacterial strains used in this study originated from ATCC (Manassas, Va.): S. aureus (ATCC 25923; ATCC 35548), S. epidermidis (ATCC 35983), E. coli (ATCC 700928; ATCC 25922), P. aeruginosa (ATCC 27853; ATCC 12121), K pneumoniae (ATCC 10031; ATCC 13885) and B. cereus (ATCC 11778). Cultures were maintained and subcultured periodically on nutrient agar plates and stored at 4 to 8° C. until tested. Stock cultures of all bacteria were stored in tryptic soy broth with 10% glycerol at −70° C. Log-phase cultures of bacteria grown in Miller's Luria-Bertani (LB) broth (Mediatech Inc, Herndon, Va.) were concentrated by centrifugation at 3000×g and dilutions were prepared with phosphate-buffered saline (PBS; pH 7.4) (Mediatech Inc, Herndon, Va.). In all experiments bacterial titers were estimated by optical density and confirmed by quantitative culture by plating on nutrient agar (NA) plates.
Mid-logarithmic phase cultures of bacteria with an inoculum of 10^5 CFU/ml were incubated with peptide concentrations ranging from 0 to 50 μg/ml in a shaker incubator for 2 h following which the samples were plated on NA agar plates and CFU determined.

Test [6] deals with P. aeruginosa. Briefly: Outer membrane permeabilization (NPN uptake) assay. How it is done:
(§2) Membrane-permeabilizing activity of the peptide was determined using the fluorescent dye N-phenyl-1-napthylamine (NPN) assay, as described earlier (Loh et al. (1984) Antimicrob. Agents Chemother. 26, 546-551), with intact cells of E. coli and P. aeruginosa. The increase in fluorescence due to partitioning of NPN uptake into outer membrane (OM) was measured by addition of increasing concentrations of peptide. Polymyxin B (PMB) was taken as a positive control due to its outer membrane permeabilizing properties. All experiments were performed three times. S. aureus was used as a negative control.
(§3) Outer membrane permeabilizing activity of EC5 against E. coli and P. aeruginosa was determined using the fluorescent dye N-phenyl-1-napthylamine (NPN) assay. The outer membrane of a bacterial cell is impermeable to NPN under normal conditions. However permeabilization of outer membrane by anti-microbial peptides allows the uptake of NPN thereby leading to increase in fluorescence in the cell. […] The outer membrane permeabilizing activity of EC5 was compared to polymyxin B, a well studied membrane permeabilising agent (Daugelavicius, R., et al., (2000) Antimicrob. Agents Chemother. 44, 2969-2978).

In test [7] the test system is E. coli. Kind of test: Outer membrane permeabilization (NPN uptake) assay. As for the experimental part: as §2, §3
Test [8] has as its system S. aureus. Kind of test: MIC by standard dilution assay (CLSI). As for the experimental part:
as §1

The test system of test [9] is S. epidermidis. Kind of test: MIC by standard dilution assay (CLSI). As for the experimental part: as §1
Test [10] deals with Gram-positive strains. Briefly: MIC by standard dilution assay (CLSI). How it is done:
as §1

In test [11] the test system is B. cereus. Briefly: MIC by standard dilution assay (CLSI). How it is done:
as §1

[12] abbreviates: increasing peptide concentrations.

A word on the MIC: it is the lowest concentration that inhibits growth of the organism. Low readings indicate inhibition by little substance, high ones a need for much substance. On to `CC[C@H](C)[C@H](NC(=O)[C@H](CCCCN)NC(=O)[C@H](CCCNC(=N)N)NC(=O)[C@H](Cc1ccccc1)NC(=O)[C@H](CC(C)C)NC(=O)[C@H](CC(C)C)NC(=O)[C@@H](N)CCCNC(=N)N)C(=O)N[C@@H](CCCNC(=N)N)C(=O)N[C@@H](CCCNC(=N)N)C(=O)N[C@@H](CC(C)C)C(=O)N[C@@H](CCCCN)C(=O)N[C@@H](CCCNC(=N)N)C(=O)O` [EC5, RLLFRKIRRLKR] (H-RLLFRKIRRLKR-OH; N-terminus and C-terminus assumed), for which, in test [1], the “release of diSC3-5 from S. aureus” value was “no trace of release”. The MIC is 16 to 32 µg/mL in test [2]; 8 µg/mL (≈ 4.83 µM) in test [2] (P. aeruginosa ATCC 27853); 8 µg/mL (≈ 4.83 µM) in [2] (P. aeruginosa, strain not named); 8 µg/mL (≈ 4.83 µM) in test [3]; 64 to 128 µg/mL in [4]. In addition, the “Minimum Bactericidal Concentration (MBC)” value in [2] and in [3] was 8 µg/mL throughout. Also, the “activity against the other bacteria tested” value in [5] is listed as “no activity”. The “increase in NPN fluorescence compared with polymyxin B” value in [6] (at similar concentrations) and in test [7] (at similar concentrations) was “higher than for polymyxin B” throughout. In addition, the “NPN fluorescence (outer membrane permeabilization)” value in test [6] (setting [12]) and in test [7] (setting [12]) was “dose-dependent increase in fluorescence” throughout. For the same compound, the “activity against S. aureus” value in test [8] is given as “not active”. The “activity against S. epidermidis” value in test [9] is reported as “not active”. Also, the “activity against Gram-positive strains” value in test [10] is listed as “no activity”. The “activity against B. cereus” value in test [11] is given as “not active”.

For the origin of these results see patent publication US9243036B2, “Anti-microbial activity of synthetic peptides” (THE UNITED STATES OF AMERICA, as represented by the …, priority 2012, dated 2016).
